Reference: US20260042755A1, “GPR6 INVERSE AGONISTS” (MapLight Therapeutics, Inc., priority 2022, published 2026)

Experiments:
GPR3 = target: T1, GPR3 (Homo sapiens, UniProt P46089); assay: GPR3 antagonist functional cAMP assay (LANCE Ultra cAMP TR-FRET, CHO cells stably expressing GPR3); assay type: cell-based
T1 construct: expressed in transfected cells; host or cells: CHO cells
Method: (§1) Example 56. GPR6 and GPR3 Antagonist Functional cAMP Assay
(§2) CHO cells stably expressing GPR6 or GPR3 receptors were dissociated from cell culture flasks and incubated for 2 h at 37° C. in a 10 cm dish in a humidified incubator. Cells were dissociated, counted to have 1e6 cells/mL (4.5e6 cells needed/384-well plate), washed once in starved media, than in D-PBS and finally suspended in assay buffer (Krebs-Ringer Bicarbonate Buffer with 1800 mg/L glucose, without calcium chloride and sodium bicarbonate (Sigma) in the presence of 0.1% BSA and 150 μM of Ro 20-1724 Phosphodiesterase inhibitor).
(§3) Cells in suspension from above were plated in 384-well white Optiplate (PerkinElmer) at 10,000 cells/well/10 μl, briefly centrifuged prior direct addition of compounds ([…]) in 10 mM DMSO using a Tecan D300e Digital Dispenser, final DMSO in each well was normalized to 0.1%. Cells were incubated in the presence of compounds for 45 min at 37° C. in a humidified incubator.
(§4) To measure cAMP levels, LANCE® Ultra cAMP assay (Perkin Elmer), a homogeneous time-resolved fluorescence resonance energy transfer (TR-FRET) immunoassay was used following manufacturer's recommendations. Plates were shaken for 1 h at room temperature before reading on a Tecan InfiniteF200Pro multi-mode plate reader using standard FRET settings (Excitation 340 nm, Emission at 615 nm). FRET values were reported as readings obtained at 665 nm. Data were normalized to DMSO (0.1%) and reference compounds (100%) and fit to a 4-parameter logistical fit to generate antagonist IC50s.

GPR6 = target: T2, GPR6 (Homo sapiens, UniProt P46095); assay: GPR6 antagonist functional cAMP assay (LANCE Ultra cAMP TR-FRET, CHO cells stably expressing GPR6); assay type: cell-based
T2 construct: expressed in transfected cells; host or cells: CHO cells
T2 sequence (P46095 whole entry): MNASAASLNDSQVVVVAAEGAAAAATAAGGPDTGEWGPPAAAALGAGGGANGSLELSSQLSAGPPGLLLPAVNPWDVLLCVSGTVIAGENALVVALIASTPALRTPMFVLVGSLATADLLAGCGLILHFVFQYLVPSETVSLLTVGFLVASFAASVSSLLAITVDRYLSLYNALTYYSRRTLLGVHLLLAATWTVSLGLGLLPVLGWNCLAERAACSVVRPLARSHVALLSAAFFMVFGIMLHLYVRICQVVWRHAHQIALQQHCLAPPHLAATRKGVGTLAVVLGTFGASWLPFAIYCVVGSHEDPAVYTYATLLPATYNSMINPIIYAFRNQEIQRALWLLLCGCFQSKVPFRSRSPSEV
Method: as §1, §2, §3, §4

[1] = CHO cells stably expressing GPR3, cAMP assay (Example 24)
[2] = CHO cells stably expressing GPR6, cAMP assay (Example 24)
[3] = CHO cells stably expressing GPR3, cAMP assay
[4] = CHO cells stably expressing GPR6, cAMP assay
[5] = procedure as described in Example 24

T1 sequence (P46089 whole entry, species assumed): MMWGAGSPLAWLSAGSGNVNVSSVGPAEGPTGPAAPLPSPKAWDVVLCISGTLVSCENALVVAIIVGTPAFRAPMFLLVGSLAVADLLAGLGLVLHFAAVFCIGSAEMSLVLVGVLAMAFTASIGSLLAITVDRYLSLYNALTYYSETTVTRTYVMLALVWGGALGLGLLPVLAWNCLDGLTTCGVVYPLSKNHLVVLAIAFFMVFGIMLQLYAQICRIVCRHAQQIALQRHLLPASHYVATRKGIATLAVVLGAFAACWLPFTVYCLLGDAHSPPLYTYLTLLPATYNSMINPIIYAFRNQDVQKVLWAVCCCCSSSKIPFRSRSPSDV

| IC50 (GPR3; [1]) | IC50 (GPR6; [2]) | IC50 (GPR3; procedure of Example 24) | IC50 (GPR6; procedure of Example 24) | SMILES | also measured |
| --- | --- | --- | --- | --- | --- |
| 1 to 30 µM | 0.1 to 1 µM | – | – | O=C(C1COC1)N1CCc2nc(N3CCC(Oc4ccc(F)cc4F)CC3)c(-c3cnn(C4CCCCO4)c3)nc2C1 (stereo not drawn) [Compound 172, 4-(2,4-difluorophenoxy)-1-{3-[1-(oxan-2-yl)-1H-pyrazol-4-yl]-6-(oxetane-3-carbonyl)-5H,6H,7H,8H-pyrido[3,4-b]pyrazin-2-yl}piperidine] | – |
| – | – | – | – | Cn1cc(-c2nc3cc(C(C)(O)C(C)(C)O)ncc3nc2N2CCN(Cc3ccc(F)cc3F)CC2)cn1 (stereo not drawn) [Compound 604, 2-(3-{4-[(2,4-difluorophenyl)methyl]-1-piperazinyl}-2-(1-methyl-4-pyrazolyl)-1,4,6-triaza-7-naphthyl)-3-methyl-2,3-butanediol] | IC50 (GPR3; [3]): 1 to 30 µM; IC50 (GPR6; [4]): 0.1 to 1 µM |
| – | – | 1 to 30 µM | 0.1 to 1 µM | CC(C)(O)C(=O)c1cc2nc(N3CCC(Oc4ccc(F)cc4F)CC3)c(-c3cnn(C4CC4)c3)nc2cn1 [Compound 625, 1-{3-(1-cyclopropyl-4-pyrazolyl)-2-[4-(2,4-difluorophenoxy)-1-piperidyl]-1,4,6-triaza-7-naphthyl}-2-hydroxy-2-methyl-1-propanone] | – |
| 1 to 30 µM | 0.1 to 1 µM | – | – | CC(=O)N1CCc2nc(N3CCC(Oc4ccc(F)cc4F)CC3)c(-c3cccc(OC(F)(F)F)n3)nc2C1 [Compound 223, 1-{2-[4-(2,4-difluorophenoxy)piperidin-1-yl]-3-[6-(trifluoromethoxy)pyridin-2-yl]-5H,6H,7H,8H-pyrido[3,4-b]pyrazin-6-yl}ethan-1-one] | – |
| 1 to 30 µM | 1 to 30 µM | – | – | CC(=O)N1CCc2nc(N3CCC(Oc4cccc(F)c4)CC3)c(-c3cnn(C)c3)nc2C1 [Compound 393, 1-{2-[4-(3-fluorophenoxy)piperidin-1-yl]-3-(1-methyl-1H-pyrazol-4-yl)-5H,6H,7H,8H-pyrido[3,4-b]pyrazin-6-yl}ethan-1-one] | – |
| – | – | ≥ 30 µM | 1 to 30 µM | Cn1cc(-c2nc3c(nc2N2CC[C@H](Oc4ccc(F)cc4F)[C@H](F)C2)CCN(Cc2ccccc2)C3)cn1 (single isomer, unassigned) [Compound 333] | – |
| – | – | – | – | CC(=O)N1CCc2nc(N3CCC(Oc4ccc(F)cc4F)CC3)c(-c3ncccn3)nc2C1 [Compound 37, 1-{2-[4-(2,4-difluorophenoxy)piperidin-1-yl]-3-(pyrimidin-2-yl)-5H,6H,7H,8H-pyrido[3,4-b]pyrazin-6-yl}ethan-1-one] | IC50 (GPR3; [5]): 0.1 to 1 µM; IC50 (GPR6; [5]): 1 to 30 µM |
| – | – | – | – | CC(=O)N1CCc2nc(N3CCC(Oc4ccc(F)cc4F)CC3)c(-c3cncc(=O)[nH]3)nc2C1 [Compound 12, 6-{6-acetyl-2-[4-(2,4-difluorophenoxy)piperidin-1-yl]-5H,6H,7H,8H-pyrido[3,4-b]pyrazin-3-yl}-1,2-dihydropyrazin-2-one] | IC50 (GPR3; [5]): 1 to 30 µM; IC50 (GPR6; [5]): 1 to 30 µM |
| 1 to 30 µM | 0.1 to 1 µM | – | – | CC(=O)N1CCc2nc(N3CCC(Oc4ccc(F)cc4F)CC3)c(-c3cnn4c3COCC4)nc2C1 [Compound 245, 1-{2-[4-(2,4-difluorophenoxy)piperidin-1-yl]-3-{4H,6H,7H-pyrazolo [3,2-c][1,4]oxazin-3-yl}-5H,6H,7H,8H-pyrido[3,4-b]pyrazin-6-yl}ethan-1-one] | – |
| – | – | 1 to 30 µM | 1 to 30 µM | Cn1cc(-c2nc3cnccc3nc2N2CC(Oc3ccc(F)cc3F)C2)cn1 [Compound 327, 4-{2-[3-(2,4-difluorophenoxy)azetidin-1-yl]pyrido[3,4-b]pyrazin-3-yl}-1-methyl-1H-pyrazole] | – |
| – | – | – | – | CC(C)(O)[C@H](O)c1cc2nc(N3CCN(Cc4ccc(F)cc4F)CC3)c(-c3cnn(CF)c3)nc2cn1 (single isomer, unassigned) [Compound 598] | IC50 (GPR3; [3]): 1 to 30 µM; IC50 (GPR6; [4]): 0.1 to 1 µM |
| 1 to 30 µM | 0.1 to 1 µM | – | – | Cn1cc(-c2nc3cnc(CC(C)(C)O)cc3nc2N2CCC(Oc3ccc(F)cc3F)CC2)cn1 [Compound 461, 1-(2-(4-(2,4-difluorophenoxy)piperidin-1-yl)-3-(1-methyl-1H-pyrazol-4-yl)pyrido[3,4-b]pyrazin-7-yl)-2-methylpropan-2-ol] | – |
| – | – | – | – | CC(=O)N1CCc2nc(N3CCC(C(=O)c4ccc(F)cc4F)CC3)c(-c3cnn(C)c3)nc2C1 [Compound 541, 1-{2-[4-(2,4-difluorobenzoyl)-1-piperidyl]-3-(1-methyl-4-pyrazolyl)-5,6,7,8-tetrahydro-1,4,6-triaza-6-naphthyl}-1-ethanone] | IC50 (GPR3; [3]): 1 to 30 µM; IC50 (GPR6; [4]): 0.1 to 1 µM |
| 1 to 30 µM | 0.1 to 1 µM | – | – | CNc1cccc(-c2nc3c(nc2N2CCC(Oc4ccc(F)cc4F)CC2)CCN(C(C)=O)C3)n1 [Compound 117, 1-{2-[4-(2,4-difluorophenoxy)piperidin-1-yl]-3-[6-(methylamino)pyridin-2-yl]-5H,6H,7H,8H-pyrido[3,4-b]pyrazin-6-yl}ethan-1-one] | – |
| 1 to 30 µM | 0.1 to 1 µM | – | – | CC(=O)N1CCc2nc(N3CCC(Oc4ccc(F)cc4F)CC3)c(-c3ccnc(C)n3)nc2C1 [Compound 435, 1-{2-[4-(2,4-difluorophenoxy)piperidin-1-yl]-3-(2-methylpyrimidin-4-yl)-5H,6H,7H,8H-pyrido[3,4-b]pyrazin-6-yl}ethan-1-one] | – |
| ≥ 30 µM | 0.1 to 1 µM | – | – | CC(=O)N1CCc2nc(N3CCC(Oc4ccc(F)cc4F)CC3)c(C3=COCCC3)nc2C1 [Compound 219, 1-{2-[4-(2,4-difluorophenoxy)piperidin-1-yl]-3-(3,4-dihydro-2H-pyran-5-yl)-5H,6H,7H,8H-pyrido[3,4-b]pyrazin-6-yl}ethan-1-one] | – |
| – | – | – | – | CC(=O)N1CCc2nc(N3CCC(Oc4ccc(F)cc4F)CC3)c(-c3ccc(=O)[nH]c3)nc2C1 [Compound 51, 5-{6-acetyl-2-[4-(2,4-difluorophenoxy)piperidin-1-yl]-5H,6H,7H,8H-pyrido[3,4-b]pyrazin-3-yl}-1,2-dihydropyridin-2-one] | IC50 (GPR3; [5]): 1 to 30 µM; IC50 (GPR6; [5]): 0.1 to 1 µM |
| – | – | 0.1 to 1 µM | 0.1 to 1 µM | CC(C)(O)C(O)c1cc2nc(-c3cnn(CF)c3)c(N3CCC(=Cc4ccc(F)cc4F)CC3)nc2cn1 (single isomer, unassigned) [Compound 771] | – |
| – | – | 1 to 30 µM | < 0.1 µM | CC(C)(O)C(C)(O)c1cc2nc(-c3cnn(C(F)F)c3)c(N3CCN(Cc4ccc(F)cc4F)CC3)nc2cn1 (single isomer, unassigned) [Compound 663] | – |
| – | – | 1 to 30 µM | < 0.1 µM | CCn1cc(-c2nc3c(nc2N2CCC(Oc4ccc(F)cc4F)CC2)CCN(S(=O)(=O)C(C)C)C3)cn1 [Compound 266, 4-(2,4-difluorophenoxy)-1-[3-(1-ethyl-1H-pyrazol-4-yl)-6-(propane-2-sulfonyl)-5H,6H,7H,8H-pyrido[3,4-b]pyrazin-2-yl]piperidine] | – |
| – | – | 1 to 30 µM | 1 to 30 µM | Cn1cc(-c2nc3cnc(C#N)cc3nc2N2CCC(Oc3ccc(F)cc3F)CC2)cn1 [Compound 293, 2-[4-(2,4-difluorophenoxy)piperidin-1-yl]-3-(1-methyl-1H-pyrazol-4-yl)pyrido[3,4-b]pyrazine-7-carbonitrile] | – |
| 1 to 30 µM | 1 to 30 µM | – | – | COc1ccc(C(=O)N2CCN(c3nc4c(nc3-c3cnn(C)c3)CN(C(C)=O)CC4)CC2)c(F)c1 [Compound 254, 1-{2-[4-(2-fluoro-4-methoxybenzoyl)piperazin-1-yl]-3-(1-methyl-1H-pyrazol-4-yl)-5H,6H,7H,8H-pyrido[3,4-b]pyrazin-6-yl}ethan-1-one] | – |
| – | – | 1 to 30 µM | 0.1 to 1 µM | CC(C)(O)C(C)(O)c1cc2nc(-c3cnn(C(F)F)c3)c(N3CCN(Cc4ccccc4F)CC3)nc2cn1 (stereo not drawn) [Compound 684, 2-{2-[1-(difluoromethyl)-4-pyrazolyl]-3-{4-[(o-fluorophenyl)methyl]-1-piperazinyl}-1,4,6-triaza-7-naphthyl}-3-methyl-2,3-butanediol] | – |
| – | – | 0.1 to 1 µM | < 0.1 µM | Cn1cc(-c2nc3cc([C@H](O)C(C)(C)O)ncc3nc2N2CCC(=Cc3ccc(F)cc3F)CC2)cn1 (single isomer, unassigned) [Compound 764] | – |
| – | – | 1 to 30 µM | 0.1 to 1 µM | CCn1cc(-c2nc3cnc(C(=O)C(C)(C)O)cc3nc2N2CCC(Oc3ccc(F)cc3F)CC2)cn1 [Compound 651, 1-{2-[4-(2,4-difluorophenoxy)-1-piperidyl]-3-(1-ethyl-4-pyrazolyl)-1,4,6-triaza-7-naphthyl}-2-hydroxy-2-methyl-1-propanone] | – |
| – | – | 0.1 to 1 µM | < 0.1 µM | Cn1cc(-c2nc3cnccc3nc2N2CCC(Cc3ccc(F)cc3F)CC2)cn1 [Compound 368, 4-[(2,4-difluorophenyl)methyl]-1-[3-(1-methyl-1H-pyrazol-4-yl)pyrido[3,4-b]pyrazin-2-yl]piperidine] | – |
| – | – | 1 to 30 µM | 1 to 30 µM | CC(=O)N1CCc2nc(N3CCc4c(cnn4-c4ccc(F)cc4F)C3)c(-c3cnn(C)c3)nc2C1 [Compound 789, 1-{2-[1-(2,4-difluorophenyl)-4,5,6,7-tetrahydro-1H-1,2,5-triazainden-5-yl]-3-(1-methyl-4-pyrazolyl)-5,6,7,8-tetrahydro-1,4,6-triaza-6-naphthyl}-1-ethanone] | – |
